Measurements reported in patent publication US20240279602A1, “METHOD FOR PRODUCING CEREBRAL CORTICAL CELL PREPARATION DERIVED FROM HUMAN PLURIPOTENT STEM CELLS” (Kyoto University, priority 2021, published 2024).

System: human iPS cells (S2WCB1 strain, S2WCB3 strain)
Experiment: Efficiency of cerebral organoid formation after step (1) maintenance culture and induction of differentiation
Assay type: cell-based
Design: Efficiency of cerebral organoid formation (%): concentration or dose not given beside the values
Conditions: for Efficiency (%) of cerebral organoid formation: -Day 1 to Day 0, evaluated Day 35
Description: Step (1) and step (2) were performed according to a scheme illustrated in FIG. 3 or FIG. 5. Maintenance culture of human iPS cells (S2WCB1 strain, S2WCB3 strain) was performed in StemFit culture medium on a 6-well plate coated with iMatrix-511 (feeder-free).
The culture medium was exchanged with: • (1) a culture medium obtained by adding 5 μM SB431542 to StemFit culture medium without solution C (i.e., a bFGF-free culture medium) (FIG. 3); or • (2) Essential 6 culture medium (i.e., a bFGF-free, TGFβ-free culture medium) (FIG. 5), • and adhesion culture was performed for 1 day.
Step (2a) Induction of differentiation into neural cells was performed in a serum-free culture medium by using a method by Sakaguchi et al. (Stem Cell Reports, 13:458-473, 2019. doi: 10.1016/j.stemcr.2019.05.029.). Specifically, human iPS cells cultured in step (1) were dispersed into single cells by enzymatic treatment. The human iPS cells dispersed into single cells were seeded on a non-cell-adhesive 96-well culture plate (PrimeSurface 96 V-bottom plate, manufactured by Sumitomo Bakelite Co., Ltd.) (9,000 cells/well/100 μL), and subjected to suspension culture with Glasgow MEM (GMEM; Thermo Fisher Scientific Inc.) culture medium supplemented with 0.1 mM non-essential amino acids, 1 mM pyruvate, 0.1 mM 2-mercaptoethanol, 20% (v/v) KnockOut (TM) serum replacement, 100 U/mL penicillin, and 100 μg/ml streptomycin (hereinafter, also referred to as 20GMK) with further addition of 5 μM SB431542 (TGFβ signaling inhibitor; Tocris Bioscience) and 3 μM IWR1e (Wnt signaling inhibitor; Calbiochem), at 37° C. under 5% CO2 for 18 days. Culture medium exchange was performed every 3 days. Y-27632 was added to reach 50 μM on Day 0, and not added in the subsequent culture medium exchanges. Through the culture, cell aggregates were eventually obtained.
Step (2b) On Day 18, the cell aggregates obtained were transferred into a 90-mm dish, and subjected to shaking culture with an Orbital Shaker in DMEM/F12/GlutaMAX culture medium supplemented with 1×N2 supplement (Thermo Fisher Scientific Inc.), a chemically defined lipid concentrate (Invitrogen), 0.25 mg/mL fungizone (Gibco), 1% penicillin/streptomycin, and 0.1% amphotericin B at 37° C. under 20% 02 and 5% CO2 from Day 35 to Day 42. Culture medium exchange was performed every 3 to 4 days.
Efficiency (%) of cerebral organoid formation was calculated by the following expression.
In step (1) of the scheme in FIG. 3, culture was performed with a culture medium supplemented with any additive below during a period of −Day 1 to Day 0, induction of differentiation into neural cells was performed on Day 0, and the efficiencies of cerebral organoid formation were evaluated on Day 35. […] In FIG. 7, “None” indicates the absence of an additive.
Under the experimental system with (1) “bFGF-free-and-SB431542-supplemented culture medium”, which was obtained by adding 5 μM SB431542 to StemFit culture medium without solution C, in Example 1, periods for culture of iPS cells with “bFGF-free-and-SB431542-supplemented culture medium” were set as in a table below.

[1] = step (1) in bFGF-containing culture medium (StemFit with solution C)
[2] = step (1) in bFGF-free culture medium (StemFit without solution C)

SMILES	structure of cell culture on Day 35 (immunostaining) (additive in bFGF-free culture medium in step (1) (Exp. F))	Efficiency (%) of cerebral organoid formation [1]	Efficiency (%) of cerebral organoid formation [2]	Efficiency of cerebral organoid formation (%) (step (1) in Essential 6 (E6) culture medium supplemented with SB431542)	Efficiency (%) of cerebral organoid formation (step (1) in bFGF-containing culture medium (StemFit with solution C), listed as SB-431542)
O=C(Nc1cccc2cccnc12)c1ccc(N2C(=O)[C@@H]3[C@H](C2=O)[C@@H]2C=C[C@H]3C2)cc1 [IWR1e, 4-[(3aR,4S,7R,7aS)-1,3,3a,4,7,7a-hexahydro-1,3-dioxo-4,7-methano-2H-isoindol-2-yl]-N-8-quinolinyl-benzamide]	no cerebral cortex-like structure was formed	<1%	<5%	–	–
c1ccc2c(-c3cnn4cc(-c5ccc(N6CCNCC6)cc5)cnc34)ccnc2c1 [LDN-193189]	–	–	<5%	–	–
NC(=O)c1ccc(-c2nc(-c3ccc4c(c3)OCO4)c(-c3ccccn3)[nH]2)cc1 [SB431542, 4-[4-(1,3-benzodioxol-5-yl)-5-(2-pyridinyl)-1H-imidazol-2-yl]-benzamide]	–	less than 5%	high efficiency	56.9%	<5%
